# Results reported in PubChem BioAssay AID2060499 (Molecular Pharmacology Branch, DTP, NCI, 2025).
# Where “and” joins values, the source holds several entries; their conditions need not be identical. Equal values may be shown once.
# System: 777334-354-R2-J4-PDC tumor spheroids with HUVEC/MSC, viability
# Test: Anticancer human tumor 777334-354-R2-J4-PDC patient-derived pancreatic adenocarcinoma cell line growth inhibition [GQUAD]
# Conditions: for viability, T/C: stronger effect = lower value
# Description: DNA G-quadruplex Stabilizer Agents in Combinations in Complex Spheroids
# A high-throughput screen of multi-cell type tumor spheroids was designed to identify active combinations of DNA G-quadruplex stabilizer agents and targeted small molecules. Complex spheroids include a stromal component modeled by human endothelial cells (HUVEC) and fibroblasts modeled by human mesenchymal stem cells (MSCs). The concentration ranges selected for each drug and investigational agent were based upon clinically achievable concentrations if the clinical Cmax of the agent was known.
# Compounds. The drugs and investigational agents: pidnarulex (CX-5461; NSC782164), APTO-253 (NSC789042), BRACO-19 (NSC847499), peposertib (NSC802822), ceralasertib (NSC780249), elimusertib (NSC800525), camonsertib (NSC841442), AZD-1390 (NSC803789), olaparib (NSC753686), talazoparib (NSC767125), ART-558 (NSC835418), sotorasib (NSC818433), MRTX-1133 (NSC836407), SN-38 (NSC673596), topotecan (NSC609699), etoposide (NSC141540), doxorubicin (NSC123127), gemcitabine (NSC613327), 5-fluorouracil (NSC19893), paclitaxel (NSC125973), vemurafenib (NSC761431), panobinostat (NSC761190), R-306465 (JNJ-16241199; NSC773264), adavosertib (NSC754352), TP-3654 (NSC805149), carboplatin (NSC241240), KSQ-4279 (NSC840948), and staurosporine (NSC755774) were obtained from the National Cancer Institute (NCI) Developmental Therapeutics Program Chemical Repository (34). The FDA-approved anticancer drug set is available from the NCI Developmental Therapeutics Program. […] The stock solutions were prepared in dimethyl sulfoxide (DMSO, Sigma-Aldrich, St. Louis, MO, cat. D2650) at 800-fold the tested concentration and stored at -70 degrees C prior to their use. All drugs and investigational agents were tested over a range starting from a high concentration at or near the clinical Cmax and decreasing in half-log increments. If the clinical Cmax for an agent had not been determined, the highest concentration tested was 10 microM.
# 2.3 Cell Culture. All cells were maintained in an incubator at 37 degrees C and 5% CO2 with 95% humidity. The PDC lines were cultured according to standard operating procedures established by the NCI PDMR. All PDCs were thawed and cultured in Matrigel-coated flasks prepared with a working solution of 1X Ham's F-12 nutrient mix, without supplementation (Invitrogen, cat. 11765054), 100 U/mL penicillin-streptomycin (Invitrogen, cat. 15140122), and 2.5% Matrigel (Corning Inc., cat. 354248) for the first three passages. The 857933-349-R-J2-PDC line was cultured in 6C/Colon 1B media, which includes advanced DMEM/F-12 (Thermo Fisher Scientific, cat. 12634028), 10 mM HEPES (Thermo Fisher Scientific, cat. 15630080), 1X GlutaMAX supplement (Thermo Fisher Scientific, cat. 35050061), 0.1 mg/mL primocin (InvivoGen, cat. ant-pm-2), 10% defined fetal bovine serum, heat inactivated (HyClone Laboratories Inc., cat. SH30070.03HI), 50% L-WRN conditioned media (ATCC, cat. CRL-3276), 1.25 mM N-Acetyl-L-cysteine (Sigma-Aldrich, cat. A9165), 10 mM nicotinamide (Sigma-Aldrich, cat. N0636), 1X B-27 supplement (Thermo Fisher Scientific, cat. 17504044), 1X N-2 supplement (Thermo Fisher Scientific, cat. 17502048), 10 microM Y-27632 dihydrochloride (Tocris Bioscience, cat. 1254), and 50 ng/mL human EGF recombinant protein (Thermo Fisher Scientific, cat. PHG0311). The 485176-168-R4-J1-PDC line was cultured in Panc media, which includes all 6C/Colon 1B media components plus 100 ng/mL human FGF-10 (Thermo Fisher Scientific, cat. 100-26), 500 nM SB-431542 (Selleckchem, cat. S1067), and gastrin (Tocris, cat. 3006).
# […]
# 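Note: spheroids exposed to compounds for 7 days before readout.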
compound,measurement,setting,value
O=c1[nH]cc(F)c(=O)[nH]1,"viability, T/C",compound 0.0316 µM,103% (2×) and 96.5%
same,"viability, T/C",compound 0.1 µM,103% and 97.9% and 98.6%
same,"viability, T/C",compound 0.316 µM,104% and 107% and 115%
same,"viability, T/C",compound 1 µM,75.3% and 73.9% and 78%
same,"viability, T/C",compound 3.16 µM,69.9% and 72.7% and 71.7%
same,"viability, T/C",compound 10 µM,63.2% and 65.2% and 59.8%
same,IC50,curve of compound,> 10000 nM
CC1COCCN1c1cc(C2(S(C)(=N)=O)CC2)nc(-c2ccnc3[nH]ccc23)n1 (stereo not given),"viability, T/C",compound 0.0316 µM,112% and 90.9% and 98.4%
same,"viability, T/C",compound 0.1 µM,106% (2×) and 86.8%
same,"viability, T/C",compound 0.316 µM,105% and 99.7% and 115%
same,"viability, T/C",compound 1 µM,105% and 84% and 101%
same,"viability, T/C",compound 3.16 µM,89.7% and 86.5% and 112%
same,"viability, T/C",compound 10 µM,63% and 58.7% and 63.3%
same,IC50,curve of compound,> 10000 nM
CC[C@@]1(O)C(=O)OCc2c1cc1n(c2=O)Cc2cc3c(CN(C)C)c(O)ccc3nc2-1,"viability, T/C",compound 0.000999 µM,102% and 101% and 87.9%
same,"viability, T/C",compound 0.00316 µM,98.6% and 112% and 91.4%
same,"viability, T/C",compound 0.00999 µM,95.8% and 97.9% and 93.1%
same,"viability, T/C",compound 0.0316 µM,87.9% and 83.3% and 90.2%
same,"viability, T/C",compound 0.0999 µM,68.3% and 59.5% and 61.7%
same,"viability, T/C",compound 0.316 µM,39.7% and 35.4% and 42.7%
same,IC50,curve of compound,209 nM and 154 nM and 203 nM
Cn1ncnc1[C@H]1c2n[nH]c(=O)c3cc(F)cc(c23)N[C@@H]1c1ccc(F)cc1,"viability, T/C",compound 0.000999 µM,95.4% and 87.7% and 92.6%
same,"viability, T/C",compound 0.00316 µM,103% and 99.5% and 94.9%
same,"viability, T/C",compound 0.00999 µM,99% and 100% and 110%
same,"viability, T/C",compound 0.0316 µM,87.2% and 95.5% and 87.8%
same,"viability, T/C",compound 0.0999 µM,87.4% and 104% and 112%
same,"viability, T/C",compound 0.316 µM,97.3% and 83.1% and 102%
same,IC50,curve of compound,> 316 nM
C#Cc1c(F)ccc2cc(O)cc(-c3ncc4c(N5CC6CCC(C5)N6)nc(OCC56CCCN5CC(F)C6)nc4c3F)c12 (stereo not given) + CN(C)c1ccc(Nc2c3ccc(NC(=O)CCN4CCCC4)cc3nc3cc(NC(=O)CCN4CCCC4)ccc23)cc1,IC50,"curve of first compound, second compound 0.0316 µM",33.7 nM
same,IC50,"curve of first compound, second compound 0.1 µM",36.1 nM
same,IC50,"curve of first compound, second compound 0.316 µM",< 31.6 nM
same,IC50,"curve of first compound, second compound 1 µM",< 31.6 nM
same,IC50,"curve of first compound, second compound 3.16 µM",< 31.6 nM
same,IC50,"curve of first compound, second compound 10 µM",< 31.6 nM
same,"viability, T/C","second compound 0.0316 µM, first compound 0.0316 µM",51%
same,"viability, T/C","second compound 0.0316 µM, first compound 0.1 µM",38.9%
same,"viability, T/C","second compound 0.0316 µM, first compound 0.316 µM",29.8%
same,"viability, T/C","second compound 0.0316 µM, first compound 1 µM",31.2%
same,"viability, T/C","second compound 0.0316 µM, first compound 3.16 µM",30.1%
same,"viability, T/C","second compound 0.0316 µM, first compound 10 µM",22.6%
same,"viability, T/C","second compound 0.1 µM, first compound 0.0316 µM",52.3%
same,"viability, T/C","second compound 0.1 µM, first compound 0.1 µM",38.7%
same,"viability, T/C","second compound 0.1 µM, first compound 0.316 µM",34.3%
same,"viability, T/C","second compound 0.1 µM, first compound 1 µM",28.4%
same,"viability, T/C","second compound 0.1 µM, first compound 3.16 µM",29.1%
same,"viability, T/C","second compound 0.1 µM, first compound 10 µM",21.5%
same,"viability, T/C","second compound 0.316 µM, first compound 0.0316 µM",46.9%
same,"viability, T/C","second compound 0.316 µM, first compound 0.1 µM",35%
same,"viability, T/C","second compound 0.316 µM, first compound 0.316 µM",36%
same,"viability, T/C","second compound 0.316 µM, first compound 1 µM",29%
same,"viability, T/C","second compound 0.316 µM, first compound 3.16 µM",26.5%
same,"viability, T/C","second compound 0.316 µM, first compound 10 µM",22.4%
same,"viability, T/C","second compound 1 µM, first compound 0.0316 µM",37.1%
same,"viability, T/C","second compound 1 µM, first compound 0.1 µM",38%
same,"viability, T/C","second compound 1 µM, first compound 0.316 µM",31.4%
same,"viability, T/C","second compound 1 µM, first compound 1 µM",27.8%
same,"viability, T/C","second compound 1 µM, first compound 3.16 µM",25.4%
same,"viability, T/C","second compound 1 µM, first compound 10 µM",23.7%
same,"viability, T/C","second compound 3.16 µM, first compound 0.0316 µM",38.6%
same,"viability, T/C","second compound 3.16 µM, first compound 0.1 µM",34.4%
same,"viability, T/C","second compound 3.16 µM, first compound 0.316 µM",32%
same,"viability, T/C","second compound 3.16 µM, first compound 1 µM",24.2%
same,"viability, T/C","second compound 3.16 µM, first compound 3.16 µM",22.6%
same,"viability, T/C","second compound 3.16 µM, first compound 10 µM",17.8%
same,"viability, T/C","second compound 10 µM, first compound 0.0316 µM",36.3%
same,"viability, T/C","second compound 10 µM, first compound 0.1 µM",32.3%
same,"viability, T/C","second compound 10 µM, first compound 0.316 µM",27.5%
same,"viability, T/C","second compound 10 µM, first compound 1 µM",19.6%
same,"viability, T/C","second compound 10 µM, first compound 3.16 µM",15.2%
same,"viability, T/C","second compound 10 µM, first compound 10 µM",10.3%
